# Literature values, collected in patent US20100120744A1, “ACETAM[…] NMDA RECEPTORS” (AUSPEX PHARMACEUTICALS, INC., priority 2008, published 2010).
# Settings: in vivo
structure (smiles),measurement,value
"CC(=O)NCCCS(=O)(=O)O [Acamprosate, 3-acetamidopropane-1-sulfonic acid]",metabolism by the body,not metabolized
